# Data taken from patent US9095604B2, “Composition for preventing inflammations” (Meiji Co, Ltd., priority 2010, dated 2015).
# Legend:
# [1] = tested on: ulcerative colitis induced by dextran sodium sulfate (DSS); conditions: cited from earlier work
# [2] = tested on: aryl hydrocarbon receptor (AhR); test: SEAP reporter assay in HeXS34 cells (pXRE-SEAP) for AhR-activating potency; format: cell-based, mouse; conditions: 10 μM αNF preincubated 30 minutes, then 10% v/v OLL1181 for 24 hours
# Protocol: The HeXS34 cells prepared in (1) maintained in MEMα medium (Invitrogen, Carlsbad, Calif.) supplemented with 10% fetal bovine serum (FBS) were sown on a 96 well plate at 5000 cells/90 μL per well, and cultured for 24 hours in the presence of and in the absence of 10 μL (5×10^9 cells/mL) of a freeze-dried heat-sterilized lactic acid bacterium strain. […] Culture supernatants were subsequently subjected to an SEAP assay. The culture supernatant obtained in (2) was subjected to quantitative determination of SEAP by a chemiluminescence method using a Great EscAPe SEAP Chemiluminescence kit (Clontech). The assay was carried out three times, and the average value was determined using the luminescence intensity (LU) so obtained as the SEAP activity. […] In the same way as for Example 1, stimulation was carried out for 24 hours using heat-sterilized suspensions of the two types of lactic acid bacterium strains (5×10^9 cells/mL solution was added at 5% v/v and 10% v/v), and the culture supernatant was subjected to SEAP assay. […] (3).
# [3] = tested on: CYP1A1 expression in Caco2 cells; test: CYP1A1 expression in Caco2 cells by quantitative real-time PCR; format: cell-based, human; conditions: 5 μM αNF preincubated 30 minutes
# Protocol: Human Caco2 cells were cultured in DMEM medium (Invitrogen/Gibco, Carlsbad, Calif.) supplemented with 10% FBS and an antibiotic, a portion was preincubated with 5 μM αNF for 30 minutes, and both that which had been preincubated and that which had not been preincubated were subjected to stimulation with a 10% v/v heat-sterilized OLL1181 strain suspension for 4 hours.
# The Caco2 cells obtained in (1) were subjected to quantitative real-time PCR. The quantitative real-time PCR was carried out using an ABI 7300 real-time PCR system (Applied Biosystems, Foster City, Calif.) in accordance with an instruction manual. With regard to a primer and a probe, those for human CYP1A1 (Assay ID: Hs02382618_s1) and those for glyceraldehyde-3-phosphate dehydrogenase (GAPDH) (Assay ID: Hs99999905_m1) (Applied Biosystems) were used. The level of CYP1A1 gene expression relative to the level of GAPDH gene expression was calculated and defined as the relative level of CYP1A1 gene expression.
# [4] = tested on: PGE2 secretion by Caco2 cells; test: Prostaglandin E2 (PGE2) ELISA of Caco2 culture supernatant; format: cell-based; conditions: human Caco2 cells, αNF preincubation
# [5] = DSS-treated mouse, compared with no TCDD
compound,measurement,setting,value
"Clc1cc2c(cc1Cl)Oc1cc(Cl)c(Cl)cc1O2 [TCDD, 2,3,7,8-tetrachlorodibenzo-p-dioxin]",Inflammation score,[1]; [5],significantly suppressed
same,Production of inflammatory cytokines,[1]; [5],significantly suppressed
same,Shortening of the intestinal tract,[1]; [5],significantly suppressed
same,Weight loss,[1]; [5],significantly suppressed
same,Inflammatory response of ulcerative colitis induced by DSS,"[1]; mouse, in vivo",suppresses
"O=c1cc(-c2ccccc2)oc2c1ccc1ccccc12 [αNF, α-naphthoflavone]",Effect on the increase in SEAP activity caused by stimulation with the OLL1181 strain,[2],significantly inhibited
same,Effect on the OLL1181-induced increase of CYP1A1 expression,[3],significantly suppressed
same,Effect on PGE2 production by stimulation with the OLL1181 strain,[4],inhibited
